Results published in patent US20060094660A1, “Inhibitor of the shh signalling patway and a testosterone supressing agent for the treatment of cancer” (priority 2002, published 2006).
Values joined by “and” are separate entries in the source; they are usually repeats but may differ in a detail not shown here. Equal entries are not always repeated. Where two headings read alike, the source gives them in different places.

What was measured:
ventral prostate (VP) [1] = test: Organ culture of P0 rat VPs: peripheral epithelial bud tips per unit perimeter; type: cell-based; settings: for mean bud tips per unit perimeter: six days; for mean bud tips per 1000 pixels perimeter: 3 days
Source text: We chose to analyse the effect of Cy on the prostatic epithelia of VPs grown in vitro. Epithelial bud tips situated at the periphery of VPs (total of 60 VPs from each of four treatment groups and 16 independent experiments) were counted and expressed as a ratio to organ perimeter, to account for the changes in organ size after treatments (FIG. 5C). The addition of Cy to organs cultured −T caused a significant increase in the number of peripheral tips per unit perimeter (−T=60.16±/−0.97 mean bud tips per unit perimeter versus −T +Cy=74.47+/−1.07; Student's t-test, P=1.31 e^−17). […] It is possible that the number of tips induced by T or Cy were the maximum for the in vitro system, thus additive effects may not be apparent due to the limitations of the system. […] An increase in peripheral tip number was also observed in VPs cultured with anti-SHH antibody (5E1) in the absence of T (−T=62.13+/−0.82 versus −T+5E1=93.03+/−1.08), with a similar peripheral tip number being observed between VPs cultured +T and +T+5E1 (+T=74.32+/−0.69 versus +T+5E1=79.21+/−1.28).
The number of peripheral bud tips from the cultured VPs was counted and expressed as a ratio to perimeter (FIG. 10C).

ventral prostate (VP) [2] = test system: ventral prostate (VP)
Protocol: Serum-free organ culture of P0 Wistar rat VPs was performed as previously described (Sugimura et al., 1996). […] The two-dimensional area and perimeter of organs was measured from live captured images using NIH Image software.
P0 VPs were grown in vitro for five days in the presence (+) or absence (−) of T and with (+) or without (−) 100 μg ml^−1 anti-SHH antibody (5E1) (FIG. 4A), after which their two-dimensional area was measured (FIG. 4B).
Effect of exogenous SHH on VP growth and branching. The effects of adding recombinant SHH to VPs grown in vitro was examined (FIG. 10). VPs were grown for 3 days −/+T and −/+recombinant SHH protein (n=6).

ventral prostate (VP) [3] = test: Organ culture of P0 rat VPs: BrdU incorporation, mitotic/proliferative index; type: cell-based; settings: for % proliferative nuclei, mesenchyme: day 2; for % proliferative nuclei, epithelium: day 3
Protocol: (§1) Anti-CK14 antibody was diluted at 1:100, and anti-p63 antibody (Santa Cruz Biotechnologies Inc., USA) was diluted at 1:500. […] Mitotic indices were calculated by counting the number of pan-cytokeratin-positive epithelial cells that were also BrdU-positive.
[…] […] The percentage of proliferating cells was scored from three images of the peripheral tips of the organs (distal), and three images of the ducts closest to the urethra (proximal), totalling 27 distal and proximal counts for each treatment group.
The proliferative index of the epithelial and mesenchymal cell compartments was calculated for VPs cultured −/+T and −/+SHH after the addition of BrdU (FIG. 10D).

ventral prostate (VP) [4] = test: Organ culture of P0 rat VPs: histology (Masson's trichrome) and p63/CK14 immunohistochemistry; type: cell-based; settings: six days
Protocol: as §1
Prostatic ducts grow initially as solid cords, which then canalise, resulting in ducts that contain lumens. […] Normal prostatic ducts in rats consist of luminal secretory cells with underlying basal cells, forming a single lumen.

UGS explants = settings: for prostatic buds: 7 days
Protocol: As the prostate was not well developed in either mutant (FIG. 9B) or wildtype males at this stage, UGS explants from both Shh null mice and their littermates were grown in vitro to determine if prostatic budding could be induced (n=3).

Shh transcripts [5] = test: RNase protection assay, VPs grown in vitro; type: cell-based, rat; settings: six days −/+T; or five days T then one day cyproterone acetate
Source text: (§2) DNA templates for Shh and Ptc riboprobes were synthesised by RT-PCR from P0 UGT cDNA and subcloned into pBluescript KSII+ (Stratagene, USA). PCR primers were designed using GenBank-published cDNA sequences (Shh: GenBank Accession No. NM_017221; Primers: L—[…] (SEQ ID No 1), R—[…] (SEQ ID No 2); Ptc: GenBank Accession No. AF079162; Primers L—[…] (SEQ ID No 3), R—[…] (SEQ ID No 4)). DNA templates for Cyclophilin (Cphn) and 28S riboprobes were from Ambion, Inc., USA. ^32P-labelled anti-sense riboprobes were transcribed, and RNase protection assays performed as previously described in detail (Thomson et al., 1997). RNase protected products from Shh, Ptc, Cphn and 28S riboprobes were 269 nucleotides (nt), 322 nt, 103 nt and 155 nt respectively. Gels were imaged using a Storm phosphorimager (Molecular Dynamics, USA) and transcript abundance was determined from the intensities of bands, calculated using ImageQuant V.1.2 (Molecular Dynamics, USA).
(§3) RPAs were performed to analyse Shh and Ptc transcripts levels in VPs and URs grown in vitro. VPs were cultured for six days in the presence or absence of T; or for five days with T followed by a one-day treatment with the AR antagonist cyproterone acetate (FIG. 3B). […] Similarly, in short-term cultures of VPs (seven hours or three days), no changes in transcript levels were observed (data not shown).

Ptc transcripts [6] = test: RNase protection assay, VPs grown in vitro; type: cell-based, rat; settings: six days −/+T; or five days T then one day cyproterone acetate
Source text: as §2, §3

Shh transcripts [7] = test: RNase protection assay, female URs cultured three days; type: cell-based, rat; settings: three days −/+T (10^−8 M)
Source text: as §2, §3

Ptc transcripts [8] = test: as above; type: cell-based, rat; settings: three days −/+T (10^−8 M)
Source text: as §2, §3

Shh transcripts [9] = settings: explants cultured for three days; cited from earlier work
[10] = biological target: SONIC HEDGEHOG (SHH) protein, endogenous in cultured P0 Wistar rat ventral prostate (rat) (UniProt Q63673); test: cell-based or functional assay
Sequence of SONIC HEDGEHOG (SHH) protein, endogenous in cultured P0 Wistar rat ventral prostate (rat) (Q63673 25-198 limits assumed): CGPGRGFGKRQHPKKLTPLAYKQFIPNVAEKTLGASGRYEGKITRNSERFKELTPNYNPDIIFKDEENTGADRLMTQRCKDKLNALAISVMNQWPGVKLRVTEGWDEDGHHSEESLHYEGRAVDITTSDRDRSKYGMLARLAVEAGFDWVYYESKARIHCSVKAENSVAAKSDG

CC1=C2C[C@H]3[C@@H](CC=C4C[C@@H](O)CC[C@@]43C)[C@@H]2CC[C@]12O[C@@H]1C[C@H](C)CN[C@H]1[C@H]2C [Cy, cyclopamine]
mean bud tips per unit perimeter (ventral prostate (VP) [1]; +T +Cy): 69.84+/−1.13 bud tips per unit perimeter | mean bud tips per unit perimeter (ventral prostate (VP) [1]; −T +Cy): 74.47+/−1.07 bud tips per unit perimeter | effect on VP cultures (ventral prostate (VP) [2]): little or no effect | optimum concentration for growth inhibition (ventral prostate (VP) [2]): 1 µM | toxicity to VP organ cultures (organs dying prematurely) (ventral prostate (VP) [2]): toxic | mitotic nuclei in distal epithelial tips (ventral prostate (VP) [3]): 13.48%+/−0.93% and 16.28%+/−0.74% | CK14 expression (ventral prostate (VP) [4]; +T +Cy): very few CK14-positive cells in distal tips | canalisation (lumens) of prostatic ducts (ventral prostate (VP) [4]; +T +Cy): exhibited lumens in distal tips | p63 expression (ventral prostate (VP) [4]; +T +Cy): confined to the basal cell layer of all distal tips | appearance of epithelial tips (ventral prostate (VP) [4]; −T +Cy): did not alter the appearance of epithelial tips | toxicity to explants (UGS explants; 5 μM Cy): toxic and caused premature organ death | toxicity to explants (UGS explants; 10 μM Cy): toxic and caused premature organ death | prostatic buds (UGS explants; +T +5 μM Cy): present | prostatic buds (UGS explants; +T +10 μM Cy): present

C[C@]12CC[C@H]3[C@@H](CCC4=CC(=O)CC[C@@]43C)[C@@H]1CC[C@@H]2O [T, testosterone]
Shh transcript abundance (Shh transcripts [5]): No significant difference | Ptc transcript abundance (Ptc transcripts [6]): No significant difference | peripheral tip number (ventral prostate (VP) [1]; +T alone (5E1 experiments)): 74.32+/−0.69 | mean bud tips per unit perimeter (ventral prostate (VP) [1]; +T alone (Cy experiments)): 71.80+/−0.83 bud tips per unit perimeter | mean bud tips per 1000 pixels perimeter (ventral prostate (VP) [1]; +T alone (SHH experiments)): 83.92+/−2.25 bud tips per 1000 pixels perimeter | % area (2D area relative to −T) (ventral prostate (VP) [2]; +T alone (SHH experiments), 3 days): 127.05+/−5.12% | mitotic nuclei in distal epithelial tips (ventral prostate (VP) [3]; +T alone (Cy experiments), day six): 23.24%+/−1.86% | % proliferative nuclei, mesenchyme (ventral prostate (VP) [3]; +T alone (SHH experiments)): 17.81%+/−1.22% | % proliferative nuclei, epithelium (ventral prostate (VP) [3]; +T alone (SHH experiments)): 32.54%+/−1.65% | proliferation in proximal ducts (ventral prostate (VP) [3]; response to T): reduced | prostatic buds (UGS explants; +T): present | upregulation of Shh transcripts (Shh transcripts [7]): two-and-a-half-fold | change in Ptc transcript levels (Ptc transcripts [8]): no significant change

CC(=O)O[C@]1(C(C)=O)CC[C@H]2[C@@H]3C=C(Cl)C4=CC(=O)[C@@H]5C[C@@H]5[C@]4(C)[C@H]3CC[C@@]21C [cyproterone acetate]
Shh transcript abundance (Shh transcripts [5]): No significant difference | Ptc transcript abundance (Ptc transcripts [6]): No significant difference

C[C@]12CCC(=O)C[C@@H]1CC[C@@H]1[C@@H]2CC[C@]2(C)[C@@H](O)CC[C@@H]12 [dihydrotestosterone]
increase in Shh transcripts (Shh transcripts [9]): five-fold

SHH: recombinant SHH protein (Research Diagnostics, USA)
mean bud tips per 1000 pixels perimeter (ventral prostate (VP) [1]; +T +SHH): 68.34+/−2.57 bud tips per 1000 pixels perimeter | mean bud tips per 1000 pixels perimeter (ventral prostate (VP) [1]; −T +SHH): 48.0+/−3.35 bud tips per 1000 pixels perimeter | % area (2D area relative to −T) (ventral prostate (VP) [2]; +T +SHH, 3 days): 123.03+/−6.75% | effect on mesenchyme of cultured VPs (ventral prostate (VP) [2]; recombinant SHH, 3 days, both −/+T): expansion of the mesenchyme around the periphery of VPs | % proliferative nuclei, mesenchyme (ventral prostate (VP) [3]; +T+SHH): 20.47%+/−1.07% | % proliferative nuclei, epithelium (ventral prostate (VP) [3]; +T+SHH): 30.46%+/−1.72% | reduction of epithelial cell proliferation (ventral prostate (VP) [3]; VPs grown +T, not statistically significant): 6% | reduction of epithelial cell proliferation (ventral prostate (VP) [3]; VPs grown −T): a third | % proliferative nuclei, epithelium (ventral prostate (VP) [3]; −T +SHH): 18.62%+/−2.06% | % proliferative nuclei, mesenchyme (ventral prostate (VP) [3]; −T+SHH): 19.45%+/−1.12%

anti-SHH antibody (clone 5E1, Developmental Studies Hybridoma Bank, University of Iowa)
decrease in growth of P0 rat ventral prostate in vitro (two-dimensional area, five days of culture, 100 ug/ml antibody) [10]: 20% | decrease in testosterone-induced growth of rat ventral prostates in vitro [10]: 50%
